Experimental data as given in patent US11873291B2, “Quinoline cGAS antagonist compounds” (ImmuneSensor Therapeutics, Inc., priority 2020, dated 2024).

What follows are molecules tested against T1, recombinant human cGAS (aa147-522) (Homo sapiens, UniProt Q8N884) (assay: In vitro inhibition assay of cGAS activity (ATP consumption, KinaseGlo Max)). Conditions: Table 2, read-out: cGAS Inhibition Results IC50.
T1 construct: recombinant human cGAS (aa147-522); His6-SUMO (cleaved yes); made in house; host or cells: E. coli BL21/pLys
Type: biochemical
Summary of the method: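 IC50 came from plotting % ATP consumption against log compound concentration, with leftover ATP detected by KinaseGlo Max chemiluminescence. Reactions ran 20 min at 37 °C with 1.5 μg/mL human cGAS (aa147-522), 6.6 μM ATP, 0.1 mM GTP and 0.01 mg/mL DNA at pH 7.5.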

T1 sequence (Q8N884 147-522): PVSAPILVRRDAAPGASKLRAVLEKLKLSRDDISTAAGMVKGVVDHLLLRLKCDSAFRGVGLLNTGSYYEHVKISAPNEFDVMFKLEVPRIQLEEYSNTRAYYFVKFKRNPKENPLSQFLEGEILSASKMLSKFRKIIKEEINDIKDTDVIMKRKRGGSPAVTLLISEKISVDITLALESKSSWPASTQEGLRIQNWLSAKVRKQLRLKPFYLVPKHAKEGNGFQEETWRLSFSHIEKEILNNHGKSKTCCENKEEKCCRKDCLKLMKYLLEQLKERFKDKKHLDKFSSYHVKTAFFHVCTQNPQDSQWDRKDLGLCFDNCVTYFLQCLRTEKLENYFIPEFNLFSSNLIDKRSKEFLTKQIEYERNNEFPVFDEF

SMILES	IC50 [nM]
O=C(O)C1CCC=C(c2cc(-c3cn[nH]c3)c3ccc(Cl)c(Cl)c3n2)C1 (centres unmarked) [I-273, 3-(7,8-dichloro-4-(1H-pyrazol-4-yl)quinolin-2-yl)cyclohex-3-ene-1-carboxylic acid]	2000 to 30000
O=C(O)[C@@H]1CCCN(c2cc(-n3ccnc3)c3ccc(Cl)cc3n2)C1 [I-357]	2000 to 30000
Cc1cccc2nc(NCCS(N)(=O)=O)cc(-c3cn[nH]c3)c12 [I-267]	> 30000
O=C(O)CNc1cc(Cl)c2ccc(Cl)c(Cl)c2n1 [I-171]	> 30000
CN(CCCO[PH](=O)OCCC#N)c1cc(-c2cn[nH]c2)c2ccc(Cl)c(Cl)c2n1 (centres unmarked) [I-257]	< 2000
CN(CCC(=O)O)C(=O)C[C@@H]1CCCN1c1cc(-n2ccnc2)c2ccc(Cl)c(Cl)c2n1 [I-340]	< 2000
COc1ccc(-c2cc(-n3ccnc3)c3ccc(Cl)cc3n2)cc1 [I-2, 7-chloro-4-(1H-imidazol-1-yl)-2-(4-methoxyphenyl)quinoline]	2000 to 30000
Cc1cc(NC2CCCCC2C(=O)O)c2ccc(Cl)c(Cl)c2n1 (centres unmarked) [I-316]	> 30000
COc1c(Br)ccc2c(-n3ccnc3)cc(-c3ccccc3)nc12 [I-54, 7-bromo-4-(1H-imidazol-1-yl)-8-methoxy-2-phenylquinoline]	2000 to 30000
O=C(O)[C@@H]1[C@@H](O)CCN1c1cc(-n2ccnc2)c2ccc(Cl)c(Cl)c2n1 [I-345]	< 2000
O=C1CN(c2cc(Cl)nc3c(Cl)c(Cl)ccc23)CCN1 [I-307]	> 30000
COC(=O)c1cncc(-c2cc(-n3ccnc3)c3ccc(Cl)cc3n2)c1 [I-34]	> 30000
Fc1ccc2c(-n3ccnc3)ccnc2c1 [I-416]	> 30000
O=C(O)CCNc1cc(-n2ccnc2)c2ccc(Cl)cc2n1 [I-182]	2000 to 30000
COc1c(C(=O)O)cccc1-c1cc(-n2ccnc2)c2ccc(Cl)c(Cl)c2n1 [I-45]	2000 to 30000
CC(C)N(CCN1CCOCC1)c1cc(-c2cn[nH]c2)c2ccc(Cl)c(Cl)c2n1 [I-358]	2000 to 30000
CN(CC(N)=O)c1cc(-n2ccnc2)c2ccc(Cl)c(Cl)c2n1 [I-179]	2000 to 30000
CC(C)(C)OC(=O)NC[C@@H]1CCCN1c1cc(-n2ccnc2)c2ccc(Cl)c(Cl)c2n1 [I-152]	2000 to 30000
Clc1ccc2c(-n3ccnc3)cc(N3CCOCC3)nc2c1Cl [I-95]	2000 to 30000
COCn1nccc1S(=O)(=O)NCCN(C)c1cc(-n2ccnc2)c2ccc(Cl)cc2n1 [I-229]	> 30000
O=C(O)[C@@H]1CN(c2cc(-c3cn[nH]c3)c3ccc(Cl)c(Cl)c3n2)CCO1 [I-327]	< 2000
O=C(O)CNc1cc(Cl)nc2c(Cl)c(Cl)ccc12 [I-294]	> 30000
CN(CCC(N)=O)c1cc(-c2cn[nH]c2)c2ccc(Cl)c(Cl)c2n1 [I-191]	< 2000
C[C@@H](Nc1cc(-c2cn[nH]c2)nc2c(Cl)c(Cl)ccc12)C(=O)OC(C)(C)C [I-290]	2000 to 30000
Cc1cc(NCC(=O)O)c2ccc(Cl)c(Cl)c2n1 [I-293]	2000 to 30000
Cc1ncn(-c2cc(-c3ccccc3)nc3cc(Cl)ccc23)c1C [I-61]	> 30000
CN(CCC(=O)NCC(=O)O)c1cc(-c2cn[nH]c2)c2ccc(Cl)c(Cl)c2n1 [I-196]	< 2000

SMILES	IC50 [nM]
O=C(O)[C@@H]1CCN1c1cc(-c2cn[nH]c2)c2ccc(Cl)c(Cl)c2n1 [I-352]	2000 to 30000
O=C(O)c1cccc(Oc2cc(-n3ccnc3)c3ccc(Cl)cc3n2)c1 [I-282]	2000 to 30000
O=P(O)(O)CCCNc1cc(-c2cn[nH]c2)c2ccc(Cl)c(Cl)c2n1 [I-397, (3-((7,8-dichloro-4-(1H-pyrazol-4-yl)quinolin-2-yl)amino)propyl)phosphonic acid]	< 2000
CN(CCNC(=O)c1ccccc1)c1cc(-n2ccnc2)c2ccc(Cl)cc2n1 [I-237]	2000 to 30000
O=P(O)(O)CC1CCCN(c2cc(-n3ccnc3)c3ccc(Cl)c(Cl)c3n2)C1 (centres unmarked) [I-114]	2000 to 30000
Clc1ccc2c(-n3ccnc3)cc(Oc3ccccc3)nc2c1 [I-278]	2000 to 30000
O[C@@H]1CCN(c2cc(-n3ccnc3)c3ccc(Cl)c(Cl)c3n2)C1 [I-145]	< 2000
O=S(=O)(O)C1CCCN(c2cc(-n3ccnc3)c3ccc(Cl)c(Cl)c3n2)C1 (centres unmarked) [I-115]	< 2000
Clc1ccc2c(-c3cn[nH]c3)cc(NCC3COCCN3)nc2c1Cl (centres unmarked) [I-217]	> 30000
O=C(O)CNC(=O)[C@H]1CN(c2cc(-c3cn[nH]c3)c3ccc(Cl)c(Cl)c3n2)CCO1 [I-343]	2000 to 30000
Cc1cc(N2CCNC(=O)C2)c2ccc(Cl)c(Cl)c2n1 [I-302]	> 30000
CN(CCC(=O)NCCC(=O)O)c1cc(-c2cn[nH]c2)c2ccc(Cl)c(Cl)c2n1 [I-320]	< 2000
O=C(O)c1cccc(-c2cc(-c3ccn[nH]3)c3ccc(Cl)cc3n2)c1 [I-74, 3-(7-Chloro-4-(1H-pyrazol-5-yl)quinolin-2-yl)benzoic acid]	> 30000
CN(CCNS(C)(=O)=O)c1cc(-n2ccnc2)c2ccc(Cl)c(Cl)c2n1 [I-225]	< 2000
COC(=O)c1cccc(-c2cc(-n3ccnc3)c3ccc(Cl)cc3n2)c1 [I-5]	2000 to 30000
O=[PH](O)OCCC1CCCN(c2cc(-c3cn[nH]c3)c3ccc(Cl)c(Cl)c3n2)C1 (centres unmarked) [I-330]	< 2000
O=C(O)c1cc(-c2cc(-n3ccnc3)c3ccc(Cl)cc3n2)ccc1F [I-17]	2000 to 30000
Cc1cc(-c2cn[nH]c2)c2ccc(Cl)c(Cl)c2n1 [I-406, 7,8-dichloro-2-methyl-4-(1H-pyrazol-4-yl)quinoline]	2000 to 30000
O=C(O)CNC(=O)C[C@@H]1CCCN1c1cc(-n2ccnc2)c2ccc(Cl)c(Cl)c2n1 [I-156, (S)-(2-(1-(7,8-dichloro-4-(1H-imidazol-1-yl)quinolin-2-yl)pyrrolidin-2-yl)acetyl)glycine]	< 2000
OCC1CN(c2cc(-n3ccnc3)c3ccc(Cl)c(Cl)c3n2)CCO1 (centres unmarked) [I-98]	2000 to 30000
O=C(O)CCNC(=O)[C@@H]1CN(c2cc(-c3cn[nH]c3)c3ccc(Cl)c(Cl)c3n2)CCO1 [I-342]	< 2000
O=C(O)C1CN(c2cc(-c3cn[nH]c3)c3ccc(Cl)c(Cl)c3n2)CCO1 (centres unmarked) [I-369]	< 2000
NC(=O)Nc1cccc(-c2cc(-n3ccnc3)c3ccc(Cl)cc3n2)c1 [I-11, 1-(3-(7-chloro-4-(1H-imidazol-1-yl)quinolin-2-yl)phenyl)urea]	2000 to 30000
CN(CCNS(=O)(=O)c1ccccc1C(F)(F)F)c1cc(-n2ccnc2)c2ccc(Cl)cc2n1 [I-228]	> 30000
COC(=O)c1ccc(-c2cc(-n3ccnc3)c3ccc(Cl)cc3n2)cc1 [I-3]	> 30000
Clc1ccc2c(-n3ccnc3)cc(-c3cn[nH]c3)nc2c1Cl [I-378]	< 2000
CN(CCC(=O)O)c1cc(-n2ccnc2)c2ccc(Cl)c(Cl)c2n1 [I-183]	< 2000

Same assay, conditions: Table 3, read-out: cGAS Inhibition Results IC50

SMILES	IC50 [nM]
O=C(O)CCOC[C@@H]1CCCN1c1cc(N2CC[C@@H](O)C2)c2ccc(Cl)c(Cl)c2n1 [I-821, 3-(((S)-1-(7,8-dichloro-4-((R)-3-hydroxypyrrolidin-1-yl)quinolin-2-yl)pyrrolidin-2-yl)methoxy)propanoic acid]	> 30000
CN(CCCOc1ccc(Cl)cc1C(=O)O)c1cc(-n2ccnc2)c2ccc(Cl)c(Cl)c2n1 [I-847]	2000 to 30000
CC(C)N(CCCOc1cccc(F)c1C(=O)O)c1cc(-n2ccnc2)c2ccc(Cl)c(Cl)c2n1 [I-850]	2000 to 30000
O=C1CC2CCCC(C1)N2c1cc(-n2ccnc2)c2ccc(Cl)c(Cl)c2n1 [I-491]	< 2000
CN(CCC(=O)O)C(=O)C[C@@H]1CCCN1c1cc(-n2ccnc2)c2ccc(Cl)c(Cl)c2n1 [I-525]	< 2000
CN(CCNS(=O)(=O)c1cccc(C(=O)O)c1)c1cc(-n2ccnc2)c2ccc(Cl)c(Cl)c2n1 [I-623]	2000 to 30000
O=C(O)C1CC2CCC(C1)N2c1cc(-n2ccnc2)c2ccc(Cl)c(Cl)c2n1 (centres unmarked) [I-493]	< 2000
O=C(O)C1CCCCN1C(=O)C[C@@H]1CCCN1c1cc(-n2ccnc2)c2ccc(Cl)c(Cl)c2n1 (some centres unmarked) [I-533]	< 2000
COC(=O)C12CC(C)(CN1c1cc(-n3ccnc3)c3ccc(Cl)c(Cl)c3n1)C2 [I-580]	> 30000
COC(=O)CNC(=O)O[C@@H]1CCN(c2cc(-n3ccnc3)c3ccc(Cl)c(Cl)c3n2)[C@@H]1C(=O)OC [I-653, methyl (2S,3R)-1-(7,8-dichloro-4-(1H-imidazol-1-yl)quinolin-2-yl)-3-(((2-methoxy-2-oxoethyl)carbamoyl)oxy)pyrrolidine-2-carboxylate]	< 2000
O=C(O)CCOC[C@@H]1CCC(=O)N1c1cc(-n2ccnc2)c2ccc(Cl)c(Cl)c2n1 [I-812, (S)-3-((1-(7,8-dichloro-4-(1H-imidazol-1-yl)quinolin-2-yl)-5-oxopyrrolidin-2-yl)methoxy)propanoic acid]	< 2000
O=C(O)c1ccc(S(=O)(=O)N[C@@H]2C[C@@H](C(=O)O)N(c3cc(-n4ccnc4)c4ccc(Cl)c(Cl)c4n3)C2)cc1 [I-511]	< 2000
NC(=O)[C@@H]1[C@@H](O)CCN1c1cc(-n2ccnc2)c2ccc(Cl)c(Cl)c2n1 [I-557]	< 2000
COC(=O)[C@@H]1[C@@H](OC)CCN1c1cc(-n2ccnc2)c2ccc(Cl)c(Cl)c2n1 [I-646, methyl (2S,3S)-1-(7,8-dichloro-4-(1H-imidazol-1-yl)quinolin-2-yl)-3-methoxypyrrolidine-2-carboxylate]	2000 to 30000
N#C[C@@H]1CCCN1c1cc(-n2ccnc2)c2ccc(Cl)c(Cl)c2n1 [I-495]	< 2000
COC(=O)C(O)[C@@H]1CCCN1c1cc(-n2ccnc2)c2ccc(Cl)c(Cl)c2n1 (some centres unmarked) [I-662]	2000 to 30000
CCOC(=O)[C@@H]1CC[C@H](C)N1c1cc(-n2ccnc2)c2ccc(Cl)c(Cl)c2n1 [I-460]	2000 to 30000
C[C@@H]1C[C@@H](C(=O)O)N(c2cc(-n3ccnc3)c3ccc(Cl)c(Cl)c3n2)C1 [I-481]	< 2000
OC[C@@H]1CC(F)(F)CN1c1cc(-n2ccnc2)c2ccc(Cl)c(Cl)c2n1 [I-504]	< 2000
O=C(O)C1CCCN(C(=O)C[C@@H]2CCCN2c2cc(-n3ccnc3)c3ccc(Cl)c(Cl)c3n2)C1 (some centres unmarked) [I-530]	< 2000
